These results are taken from patent US20250197387A1, “BCL-XL DEGRADERS AND USES THEREOF” (Kymera Therapeutics, Inc., priority 2021, published 2025).

Holding throughout (format): cell-based
One assay concerns Caki-2 cells. The assay is described as follows: CTG (CellTiter-Glo) cell viability assay, Caki-2. The settings on record: 3 day incubation, read-out: CTG Chempartner - Caki-2 3 day: Average external-IC50. The gist of the method:
(§1)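 Nine-point 1:3 compound series topping at 10 μM (0.2% DMSO final) applied for 3 days to 10,000 MOLT-4 or Caki-2 cells per well, 37° C., 5% CO2. CellTiter-Glo luminescence read after 10 min at room temperature; three-parameter fit gave IC50.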
A general note: In ATP-based viability assays light output follows the ATP content of the culture.

Another assay concerns MOLT-4 cells. Kind of assay: CTG (CellTiter-Glo) cell viability assay, MOLT-4. The following applies: 3 day incubation, read-out: CTG Cell Viability Assay - MOLT-4 3 day: Average external-IC50. The gist of the method: as §1
The next assay deals with T1, BCL-XL (Homo sapiens, UniProt Q07817).
T1 construct: endogenous in cells; host or cells: MOLT-4
The assay is described as follows: Bcl-xL ELISA degradation in MOLT-4 cells, 6 h. The settings on record: for DC50: read-out: Bcl-xL ELISA in MOLT-4 degradation 6 h: Mean external-Abs DC50. The procedure:
The letter codes for BCL-XL DC50 include: A (<0.01 μM); B (0.01-0.1 μM); C (>[…]); D (>0.5-1.0 μM); and E (>1.0 μM). The letter codes for Dmax % include A (>75%); B (50 to 75%); C (<50%).

Read-outs that look alike come from different tables or passages of the source. Where only a bound is given, the exact number is not on record here.

T1 sequence (Q07817 whole entry): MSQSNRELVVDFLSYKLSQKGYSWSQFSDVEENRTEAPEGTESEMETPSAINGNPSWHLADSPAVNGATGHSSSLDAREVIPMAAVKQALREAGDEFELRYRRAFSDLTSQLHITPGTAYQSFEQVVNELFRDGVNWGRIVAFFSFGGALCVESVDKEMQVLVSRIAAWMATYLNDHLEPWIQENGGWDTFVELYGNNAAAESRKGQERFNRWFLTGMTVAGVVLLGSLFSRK

For the molecule `Cc1ncsc1-c1ccc([C@H](C)NC(=O)[C@@H]2C[C@@H](O)CN2C(=O)[C@@H](NC(=O)CCCCCS(=O)(=O)NC(=O)c2nc(N3CCc4cccc(C(=O)Nc5nc6cccnc6s5)c4C3)ccc2-c2cnn(CC(C)(C)C)c2C)C(C)(C)C)cc1` [I-466], the IC50 is more than 10 µM with Caki-2 cells (Homo sapiens, 72 h) and 1 to 3 µM in the assay with MOLT-4 cells (Homo sapiens, MOLT-4, 72 h). For the same molecule, the Dmax at BCL-XL was more than 75%. Also, at BCL-XL, the DC50 was in the range of 0.1 to 0.5 µM.
For the molecule `COc1nn(C)c2ccc([C@H](C)NC(=O)[C@@H]3C[C@@H](O)CN3C(=O)[C@@H](NC(=O)CCCCCS(=O)(=O)NC(=O)c3nc(N4CCc5cccc(C(=O)Nc6nc7cccnc7s6)c5C4)ccc3-c3cnn(CC4CCCCC4)c3C)C(C)(C)C)cc12` [I-489], in the assay with Caki-2 cells (Homo sapiens, 72 h), the IC50 is more than 10 µM. Moreover, the IC50 in the assay on MOLT-4 cells (Homo sapiens, MOLT-4, 72 h) was less than 0.1 µM. For the same molecule, at BCL-XL, the maximal degradation (Dmax) is more than 75% and the DC50 fell in the range of 0.01 to 0.1 µM.
For `C#Cc1ccc([C@H](C)NC(=O)[C@@H]2C[C@@H](O)CN2C(=O)[C@@H](NC(=O)CCCCCS(=O)(=O)NC(=O)c2nc(N(C)c3cc(C)c(Nc4nc5ccccc5s4)nn3)ccc2-c2cnn(CC34CC5CC(CC(C5)C3)C4)c2C)C(C)(C)C)c(OCCO)c1` [I-477], in that order: more than 10 µM, less than 0.1 µM, more than 75% and less than 0.01 µM.
`Cc1cc(N(C)c2ccc(-c3cnn(CC45CC6CC(CC(C6)C4)C5)c3C)c(C(=O)NS(=O)(=O)CCCCCC(=O)N[C@H](C(=O)N3C[C@H](O)C[C@H]3C(=O)N[C@@H](C)c3ccc(C#N)cc3)C(C)(C)C)n2)nnc1Nc1nc2ccccc2s1` [I-464]: the IC50 with Caki-2 cells (Homo sapiens, 72 h) is more than 10 µM. In the assay on MOLT-4 cells (Homo sapiens, MOLT-4, 72 h), the IC50 is 0.1 to 1 µM. On BCL-XL, the Dmax is more than 75% and the DC50 lay in the range of 0.01 to 0.1 µM.
For `C#Cc1ccc(CNC(=O)[C@@H]2C[C@@H](O)CN2C(=O)[C@@H](NC(=O)CCCCCS(=O)(=O)NC(=O)c2nc(N3CCc4cccc(C(=O)Nc5nc6ccccc6s5)c4C3)ccc2-c2cnn(CC3CCCCC3)c2C)C(C)(C)CCOP(=O)(O)O)cc1` [I-417], in that order: more than 10 µM, more than 3 µM, 50 to 75% and more than 1 µM.
The like results for `Cc1cc(N(C)c2ccc(-c3cnn(CC45CC6CC(CC(C6)C4)C5)c3C)c(C(=O)NS(=O)(=O)CCCCCc3cccc4c3n(C)c(=O)n4C3CCC(=O)NC3=O)n2)nnc1Nc1nc2ccccc2s1` (stereo not shown) [I-423] were, in that order, 1 to 10 µM, less than 0.1 µM, more than 75% and less than 0.01 µM.
With `Cc1ncsc1-c1ccc([C@H](C)NC(=O)[C@@H]2C[C@@H](O)CN2C(=O)[C@@H](c2cc(OC3CC4(C3)CN(C(=O)c3nc(N5CCc6cccc(C(=O)Nc7nc8ccccc8s7)c6C5)ccc3-c3cnn(CC5CCCCC5)c3C)C4)no2)C(C)C)cc1` [I-294], in the assay on Caki-2 cells (Homo sapiens, 72 h), the IC50 fell in the range of 1 to 10 µM. Moreover, in the assay on MOLT-4 cells (Homo sapiens, MOLT-4, 72 h), the IC50 lay in the range of 0.1 to 1 µM. On BCL-XL, the Dmax lay in the range of 50 to 75% and the DC50 is 0.01 to 0.1 µM.
Regarding `Cc1ncsc1-c1ccc(CNC(=O)[C@@H]2C[C@@H](O)CN2C(=O)[C@@H](NC(=O)CCc2cccc(S(=O)(=O)NC(=O)c3nc(N4CCc5cccc(C(=O)Nc6nc7ccccc7s6)c5C4)ccc3-c3cnn(CC4CCCCC4)c3C)c2)C(C)(C)C)cc1` [I-321], the IC50 with Caki-2 cells is 1 to 10 µM; in the assay on MOLT-4 cells, less than 0.1 µM. Further, the “Bcl-xL ELISA in MOLT-4 degradation 6 h: Average Dmax %” value on BCL-XL is listed as “A (A (>75%))”. In addition, at BCL-XL, the DC50 fell in the range of 0.01 to 0.1 µM.
For the molecule `Cc1cc(N(C)c2ccc(-c3cnn(CC45CC6CC(CC(C6)C4)C5)c3C)c(C(=O)NS(=O)(=O)CCN(C)CCC(=O)N[C@H](C(=O)N3C[C@H](O)C[C@H]3C(=O)N[C@@H](C)c3ccc(-c4scnc4C)cc3)C(C)(C)C)n2)nnc1Nc1nc2ccccc2s1` [I-428], the IC50 in the assay with Caki-2 cells (Homo sapiens, 72 h) is more than 10 µM. Besides, the IC50 in the assay with MOLT-4 cells (Homo sapiens, MOLT-4, 72 h) is less than 0.1 µM. In addition, at BCL-XL, the Dmax is more than 75% and the DC50 lay within 0.01 to 0.1 µM.
As to `Cc1ncsc1-c1ccc([C@H](C)NC(=O)[C@@H]2C[C@@H](O)CN2C(=O)[C@@H](NC(=O)CCCS(=O)(=O)NC(=O)c2nc(N3CCc4cccc(C(=O)Nc5nc6cccnc6s5)c4C3)ccc2-c2cnn(CC3CCCCC3)c2C)C(C)(C)C)cc1` [I-331], in the assay on Caki-2 cells (Homo sapiens, 72 h), the IC50 is more than 10 µM. In addition, the IC50 with MOLT-4 cells (Homo sapiens, MOLT-4, 72 h) fell in the range of 0.1 to 1 µM. In addition, on BCL-XL, the Dmax is 50 to 75% and the DC50 was in the range of 0.1 to 0.5 µM.
The like results for `Cc1ncsc1-c1ccc([C@H](C)NC(=O)[C@@H]2C[C@@H](O)CN2C(=O)[C@@H](NC(=O)C2CCN(c3ccc(S(=O)(=O)NC(=O)c4nc(N5CCc6cccc(C(=O)Nc7nc8ccccc8s7)c6C5)ccc4-c4cccc(N(C)C(C)C)c4C)cc3)CC2)C(C)(C)C)cc1` [I-323] were, in that order, more than 10 µM, 0.1 to 1 µM, 50 to 75% and 0.1 to 0.5 µM.
For the molecule `C#Cc1ccc([C@H](C)NC(=O)[C@@H]2C[C@@H](O)CN2C(=O)[C@@H](NC(=O)CCCCCS(=O)(=O)NC(=O)c2nc(N3CCc4cccc(C(=O)Nc5nc6cccnc6s5)c4C3)ccc2-c2cnn(CC3CCCCC3)c2C)C(C)(C)C)cc1` [I-364], the IC50 in the assay on Caki-2 cells (Homo sapiens, 72 h) is more than 10 µM. Further, the IC50 in the assay on MOLT-4 cells (Homo sapiens, MOLT-4, 72 h) was less than 0.1 µM. On BCL-XL, the Dmax was more than 75% and the DC50 is less than 0.01 µM.
For `Cc1ncsc1-c1ccc([C@H](C)NC(=O)[C@@H]2C[C@@H](O)CN2C(=O)[C@@H](NC(=O)N2CC(CN3CCC(S(=O)(=O)NC(=O)c4nc(N5CCc6cccc(C(=O)Nc7nc8ccccc8s7)c6C5)ccc4-c4cnn(CC5CCCCC5)c4C)CC3)C2)C(C)(C)C)cc1` [I-336], the IC50 in the assay with Caki-2 cells (Homo sapiens, 72 h) is more than 10 µM. Besides, the IC50 with MOLT-4 cells (Homo sapiens, MOLT-4, 72 h) was 1 to 3 µM. Further, on BCL-XL, the Dmax is more than 75% and the DC50 is 0.01 to 0.1 µM.
On to `Cc1ncsc1-c1ccc([C@H](C)NC(=O)[C@@H]2C[C@@H](O)CN2C(=O)[C@@H](NC(=O)C2CCC(O)(c3ccc(S(=O)(=O)NC(=O)c4nc(N5CCc6cccc(C(=O)Nc7nc8ccccc8s7)c6C5)ccc4-c4cnn(CC5CCCCC5)c4C)cc3)CC2)C(C)(C)C)cc1` (stereo partly shown) [I-314], for which the IC50 fell in the range of 1 to 10 µM in the assay with Caki-2 cells (Homo sapiens, 72 h) and 0.1 to 1 µM in the assay on MOLT-4 cells (Homo sapiens, MOLT-4, 72 h). Moreover, at BCL-XL, the Dmax was less than 50%. Further, the DC50 on BCL-XL is more than 1 µM.
Regarding `Cc1cc(N(C)c2ccc(-c3cnn(CC45CC6CC(CC(C6)C4)C5)c3C)c(C(=O)NS(=O)(=O)CC3CCN(CC(=O)N[C@H](C(=O)N4C[C@H](O)C[C@H]4C(=O)N[C@@H](C)c4ccc(-c5scnc5C)cc4)C(C)(C)C)CC3)n2)nnc1Nc1nc2cccnc2s1` [I-449], the IC50 in the assay on Caki-2 cells (Homo sapiens, 72 h) was more than 10 µM; with MOLT-4 cells (Homo sapiens, 72 h) it was more than 3 µM. The Dmax on BCL-XL is more than 75%. Also, at BCL-XL, the DC50 lay in the range of 0.1 to 0.5 µM.
For `C#Cc1ccc(CNC(=O)[C@@H]2C[C@@H](O)CN2C(=O)[C@@H](NC(=O)CCNCCS(=O)(=O)NC(=O)c2nc(N(C)c3cc(C)c(Nc4nc5ccccc5s4)nn3)ccc2-c2cnn(CC34CC5CC(CC(C5)C3)C4)c2C)C(C)(C)C)cc1` [I-429], the IC50 was more than 10 µM in the assay with Caki-2 cells (Homo sapiens, 72 h) and 0.1 to 1 µM in the assay with MOLT-4 cells (Homo sapiens, MOLT-4, 72 h). Further, the Dmax on BCL-XL was more than 75%. The DC50 at BCL-XL is 0.01 to 0.1 µM.
The like results for `Cc1ncsc1-c1ccc([C@H](C)NC(=O)[C@@H]2C[C@@H](O)CN2C(=O)[C@@H](NC(=O)C2CCN(c3ccc(S(=O)(=O)NC(=O)c4nc(N5CCc6cccc(C(=O)Nc7nc8ccccc8s7)c6C5)ccc4-c4cnn(CC5CC5)c4C)cc3)CC2)C(C)(C)C)cc1` [I-344] were, in that order, more than 10 µM, 0.1 to 1 µM, more than 75% and 0.01 to 0.1 µM.
The like results for `Cc1cc(N(C)c2ccc(-c3cnn(CC45CC6CC(CC(C6)C4)C5)c3C)c(C(=O)NS(=O)(=O)CCCCCC(=O)N[C@H](C(=O)N3C[C@H](O)C[C@H]3C(=O)NCc3ccc4c(c3)c(C)nn4C)C(C)(C)C)n2)nnc1Nc1nc2ccccc2s1` [I-484] were, in that order, more than 10 µM, less than 0.1 µM, more than 75% and less than 0.01 µM.
Turning to `Cc1ncsc1-c1ccc([C@H](C)NC(=O)[C@@H]2C[C@@H](O)CN2C(=O)[C@@H](NC(=O)CCNCCS(=O)(=O)NC(=O)c2nc(N3CCc4cccc(C(=O)Nc5nc6cccnc6s5)c4C3)ccc2-c2cnn(CC3CCCCC3)c2C)C(C)(C)C)cc1` [I-376], in the assay on Caki-2 cells (Homo sapiens, 72 h), the IC50 was more than 10 µM. Further, the IC50 with MOLT-4 cells (Homo sapiens, MOLT-4, 72 h) was more than 3 µM. Moreover, at BCL-XL, the Dmax was more than 75% and the half-maximal degradation concentration (DC50) fell in the range of 0.01 to 0.1 µM.
The like results for `C#Cc1ccc(CNC(=O)[C@@H]2C[C@@H](O)CN2C(=O)[C@@H](NC(=O)CCN(C)CCS(=O)(=O)NC(=O)c2nc(N(C)c3cc(C)c(Nc4nc5ccccc5s4)nn3)ccc2-c2cnn(CC34CC5CC(CC(C5)C3)C4)c2C)C(C)(C)C)cc1` [I-430] were, in that order, more than 10 µM, less than 0.1 µM, more than 75% and 0.01 to 0.1 µM.
The like results for `C#Cc1ccc([C@H](C)NC(=O)[C@@H]2C[C@@H](O)CN2C(=O)[C@@H](NC(=O)CCCCS(=O)(=O)NC(=O)c2nc(N(C)c3cc(C)c(Nc4nc5cccnc5s4)nn3)ccc2-c2cnn(CC34CC5CC(CC(C5)C3)C4)c2C)C(C)(C)C)cc1` [I-454] were, in that order, more than 10 µM, 1 to 3 µM, more than 75% and 0.01 to 0.1 µM.
For `Cc1cc(N(C)c2ccc(-c3cnn(CC45CC6CC(CC(C6)C4)C5)c3C)c(C(=O)NS(=O)(=O)c3ccc(N4CC(C(=O)N[C@H](C(=O)N5C[C@H](O)C[C@H]5C(=O)N[C@@H](C)c5ccc(-c6scnc6C)cc5)C(C)(C)C)C4)cc3)n2)nnc1Nc1nc2ccccc2s1` [I-434], in that order: more than 10 µM, less than 0.1 µM, more than 75% and 0.01 to 0.1 µM.

A word on the IC50: it is the concentration that inhibits the measured activity by half. As usually defined, the Dmax is the largest share of the target that was removed. Broadly, the DC50 is the midpoint of the concentration-degradation curve.
